Laboratory results taken from patent EP0432442A1, “ACAT inhibitors” (priority 1989, dated 1991).

How the values were obtained:
[1] = molecular target: acyl-CoA: cholesterol acyltransferase (ACAT); assay: in vitro ACAT inhibition: formation of radiolabeled cholesterol oleate from radiolabeled oleic acid in rabbit intestinal microsomes; format: biochemical; conditions: tissue preparation containing rabbit intestinal microsomes
Description: The ability of representative compounds of the present invention to inhibit ACAT was measured using an in vitro test more fully described in F. J. Field and R. G. Salone, Biochemica et Biophysica 712:557-570 (1982). The test assesses the ability of a test compound to inhibit the acylation of cholesterol by oleic acid by measuring the amount of radiolabeled cholesterol oleate formed from radiolabeled oleic acid in a tissue preparation containing rabbit intestinal microsomes.
The data appear in Table 1 where they are expressed in IC50 values; i.e., the concentration of test compound required to inhibit 50% […] of the enzyme.

[2] = tested on: male Sprague-Dawley rats; assay: in vivo screen designated APCC: blood cholesterol in rats fed the PCC diet; conditions: blood cholesterol vs vehicle (CMC/Tween); dosed at 4 PM, PCC diet with 1% or 0.5% cholic acid overnight, sacrificed at 8 AM; dose not given
Text: In one in vivo screen designated APCC. male Sprague-Dawley rats (200 to 225 g) were randomly divided into treatment groups and dosed at 4 PM with either vehicle (CMCTween) or suspensions of compounds in vehicle. The normal chow diet was then replaced with the PCC diet with either 1% or 0.5^00 cholic acid, as indicated. The rats consumed this diet ad libitum during the night and were sacrificed at 8 AM to obtain blood samples for cholesterol analysis using standard procedures. Statistical differences between mean cholesterol values for the same vehicle were determined using analysis of variance followed by Fisher's least significant test.

Compound | IC50 [1] [µM] | % Change (mg/dl) [2] [%]
CC(C)c1cccc(C(C)C)c1NC(=O)NCC(NCc1ccccc1)c1ccccc1 (racemic) [Example 5, (±)-N-(2,6-bis(1-methylethyl)phenyl]-N'-[2-phenylmethylamino)-2-phenylethyl]urea] | 0.051 | -53
CC(C)c1cccc(C(C)C)c1NC(=O)NCC(NC(=O)c1ccccn1)c1ccccc1 (racemic) [Example 12, (±)-N-[2-[[[[2,6-bis(1-methylethyl)phenyl]amino]carbonyl]amino]-1-phenethyl-2-pyridinylarnide] | 0.08 | –
CCCCCCCNC(CNC(=O)Nc1c(C(C)C)cccc1C(C)C)c1ccccc1 (racemic) [Example 8, (±)-N-[2,6-bis(1-methylethyl)phenyl]-N'-[2-heptylamino-2-phenylethyl]urea] | 0.11 | -25
CC(C)c1cccc(C(C)C)c1NC(=O)NCC(NC(=O)c1ccccc1)c1ccccc1 (racemic) [Example 4, (±)-N-[2-[[[[2,6-bis(1-methylethyl)phenyl]amino]carbonyl]amino]-1-phenylethyl]benzenecarboxamide] | 0.53 | –
CC(C)c1cccc(C(C)C)c1NC(=O)NCC(NC(=O)CCCCCBr)c1ccccc1 (racemic) [Example 9, (±)-N-[2-[[[[2,6-bis(1-methylethy))phenyl]amino]carbonyl]amino]-1-phenylethyl]-6-bromohexanamide] | 0.38 | -36
CCCCCCC(=O)NC(CNC(=O)Nc1c(C(C)C)cccc1C(C)C)c1ccccc1 (racemic) [Example 7, (±)-N-[2-[[[[2,6-bis(1-methylethyl)phenyl]amino]carbonyl]amino]-1-phenylethyl]heptanamide] | 0.15 | –
CCCCCCCCCCCCNCC(CNC(=O)Nc1c(C(C)C)cccc1C(C)C)c1ccccc1 (racemic) [Example 11, (±)-N-[2,6-bis(1-methylethyl)phenyl]-N'-[3-dodecylamino-2-phenylpropyl]urea] | – | -54
COCCCCCC(=O)NC(CNC(=O)Nc1c(C(C)C)cccc1C(C)C)c1ccccc1 (racemic) [Example 10, (±)-N-[2-[[[[2,6-bis(1-methylethyl)phenyl]amino]carbonyl]amino]-1-phenylethyl]-6-methoxyhexanamide] | 0.39 | –
